Reference: ChEMBL document CHEMBL3885881, “DrugMatrix”

Species on record: Rattus norvegicus
Experiment: DrugMatrix - Regimen: Daily Repeat
Assay type: toxicity, organism-based, Sprague-Dawley
Design: regimen Daily Repeat, gender Male, age 6-8 weeks
Conditions: in vivo, po, route oral GAVAGE, vehicle .5 % CMC; for BASOPHIL / EOSINOPHIL / ERYTHROCYTE COUNT / HEMATOCRIT / HEMOGLOBIN / LEUKOCYTE COUNT / LYMPHOCYTE / MEAN CORPUSCULAR HEMOGLOBIN / MEAN CORPUSCULAR HEMOGLOBIN CONCENTRATION / MEAN CORPUSCULAR VOLUME / MONOCYTE / NEUTROPHIL / PLATELET COUNT: tissue Blood; for ALANINE AMINOTRANSFERASE / ALBUMIN / ALKALINE PHOSPHATASE / ASPARTATE AMINOTRANSFERASE / BLOOD UREA NITROGEN / CHLORIDE / CHOLESTEROL / CREATINE PHOSPHOKINASE / CREATININE / GLUCOSE / PHOSPHORUS / POTASSIUM / SODIUM / TOTAL BILIRUBIN / TOTAL PROTEIN: tissue Plasma
[1] = 0 mg/kg, 72 h, dose level Control, time 3 day
[2] = 0 mg/kg, 120 h, dose level Control, time 5 day
[3] = 8 mg/kg, 72 h, dose level Low, time 3 day
[4] = 8 mg/kg, 120 h, dose level Low, time 5 day
[5] = 24 mg/kg, 72 h, dose level High, time 3 day
[6] = 24 mg/kg, 120 h, dose level High, time 5 day

SMILES: CCc1cccc2c3c([nH]c12)C(CC)(CC(=O)O)OCC3 (stereo not drawn) [ETODOLAC]
- BASOPHIL [1]: 1.52%
- EOSINOPHIL [1]: 0.98%
- ERYTHROCYTE COUNT [1]: 6.96 x10E6/uL
- HEMATOCRIT [1]: 44.65%
- HEMOGLOBIN [1]: 13.62 G/DL
- LEUKOCYTE COUNT [1]: 9.83 x10E3/uL
- LYMPHOCYTE [1]: 76.48%
- MEAN CORPUSCULAR HEMOGLOBIN [1]: 19.57 pg
- MEAN CORPUSCULAR HEMOGLOBIN CONCENTRATION [1]: 30.47 G/DL
- MEAN CORPUSCULAR VOLUME [1]: 64.22 fL
- MONOCYTE [1]: 2.13%
- NEUTROPHIL [1]: 18.6%
- PLATELET COUNT [1]: 1217.17 x10E3/uL
- ALANINE AMINOTRANSFERASE [1]: 41 u/L
- ALBUMIN [1]: 3.77 G/DL
- ALKALINE PHOSPHATASE [1]: 411.83 u/L
- ASPARTATE AMINOTRANSFERASE [1]: 62.83 u/L
- BLOOD UREA NITROGEN [1]: 15.17 mg/dL
- CHLORIDE [1]: 104.33 MEQ/L
- CHOLESTEROL [1]: 71.17 mg/dL
- CREATINE PHOSPHOKINASE [1]: 123.5 u/L
- CREATININE [1]: 0.55 mg/dL
- GLUCOSE [1]: 182.67 mg/dL
- PHOSPHORUS [1]: 11.23 mg/dL
- POTASSIUM [1]: 7.03 MEQ/L
- SODIUM [1]: 148 MEQ/L
- TOTAL BILIRUBIN [1]: 0.57 mg/dL
- TOTAL PROTEIN [1]: 6.85 G/DL
- BASOPHIL [2]: 1.35%
- EOSINOPHIL [2]: 0.43%
- ERYTHROCYTE COUNT [2]: 6.96 x10E6/uL
- HEMATOCRIT [2]: 44.35%
- HEMOGLOBIN [2]: 13.98 G/DL
- LEUKOCYTE COUNT [2]: 9.45 x10E3/uL
- LYMPHOCYTE [2]: 80.83%
- MEAN CORPUSCULAR HEMOGLOBIN [2]: 20.1 pg
- MEAN CORPUSCULAR HEMOGLOBIN CONCENTRATION [2]: 31.52 G/DL
- MEAN CORPUSCULAR VOLUME [2]: 63.72 fL
- MONOCYTE [2]: 2.37%
- NEUTROPHIL [2]: 14.05%
- PLATELET COUNT [2]: 1298 x10E3/uL
- ALANINE AMINOTRANSFERASE [2]: 42.17 u/L
- ALBUMIN [2]: 3.77 G/DL
- ALKALINE PHOSPHATASE [2]: 419 u/L
- ASPARTATE AMINOTRANSFERASE [2]: 66.67 u/L
- BLOOD UREA NITROGEN [2]: 16.67 mg/dL
- CHLORIDE [2]: 103.17 MEQ/L
- CHOLESTEROL [2]: 66.33 mg/dL
- CREATINE PHOSPHOKINASE [2]: 148.33 u/L
- CREATININE [2]: 0.58 mg/dL
- GLUCOSE [2]: 196.83 mg/dL
- PHOSPHORUS [2]: 11.8 mg/dL
- POTASSIUM [2]: 6.47 MEQ/L
- SODIUM [2]: 148.33 MEQ/L
- TOTAL BILIRUBIN [2]: 0.53 mg/dL
- TOTAL PROTEIN [2]: 6.77 G/DL
- BASOPHIL [3]: 2.87%
- EOSINOPHIL [3]: 0.5%
- ERYTHROCYTE COUNT [3]: 7.29 x10E6/uL
- HEMATOCRIT [3]: 46.3%
- HEMOGLOBIN [3]: 14.43 G/DL
- LEUKOCYTE COUNT [3]: 10.83 x10E3/uL
- LYMPHOCYTE [3]: 74.43%
- MEAN CORPUSCULAR HEMOGLOBIN [3]: 19.83 pg
- MEAN CORPUSCULAR HEMOGLOBIN CONCENTRATION [3]: 31.17 G/DL
- MEAN CORPUSCULAR VOLUME [3]: 63.57 fL
- MONOCYTE [3]: 2.53%
- NEUTROPHIL [3]: 19.13%
- PLATELET COUNT [3]: 1601 x10E3/uL
- ALANINE AMINOTRANSFERASE [3]: 44.33 u/L
- ALBUMIN [3]: 3.8 G/DL
- ALKALINE PHOSPHATASE [3]: 358.67 u/L
- ASPARTATE AMINOTRANSFERASE [3]: 64 u/L
- BLOOD UREA NITROGEN [3]: 12.33 mg/dL
- CHLORIDE [3]: 102.67 MEQ/L
- CHOLESTEROL [3]: 62 mg/dL
- CREATINE PHOSPHOKINASE [3]: 129.67 u/L
- CREATININE [3]: 0.57 mg/dL
- GLUCOSE [3]: 182.33 mg/dL
- PHOSPHORUS [3]: 13.07 mg/dL
- POTASSIUM [3]: 7.23 MEQ/L
- SODIUM [3]: 148.67 MEQ/L
- TOTAL BILIRUBIN [3]: 0.37 mg/dL
- TOTAL PROTEIN [3]: 6.7 G/DL
- BASOPHIL [4]: 2.2%
- EOSINOPHIL [4]: 0.17%
- ERYTHROCYTE COUNT [4]: 7.21 x10E6/uL
- HEMATOCRIT [4]: 45.2%
- HEMOGLOBIN [4]: 14.13 G/DL
- LEUKOCYTE COUNT [4]: 12.43 x10E3/uL
- LYMPHOCYTE [4]: 78.07%
- MEAN CORPUSCULAR HEMOGLOBIN [4]: 19.67 pg
- MEAN CORPUSCULAR HEMOGLOBIN CONCENTRATION [4]: 31.37 G/DL
- MEAN CORPUSCULAR VOLUME [4]: 62.7 fL
- MONOCYTE [4]: 3.4%
- NEUTROPHIL [4]: 15.23%
- PLATELET COUNT [4]: 1492.67 x10E3/uL
- ALANINE AMINOTRANSFERASE [4]: 41.67 u/L
- ALBUMIN [4]: 3.8 G/DL
- ALKALINE PHOSPHATASE [4]: 376 u/L
- ASPARTATE AMINOTRANSFERASE [4]: 62.67 u/L
- BLOOD UREA NITROGEN [4]: 16 mg/dL
- CHLORIDE [4]: 102 MEQ/L
- CHOLESTEROL [4]: 67.33 mg/dL
- CREATINE PHOSPHOKINASE [4]: 145 u/L
- CREATININE [4]: 0.6 mg/dL
- GLUCOSE [4]: 181.33 mg/dL
- PHOSPHORUS [4]: 12.37 mg/dL
- POTASSIUM [4]: 6.73 MEQ/L
- SODIUM [4]: 149 MEQ/L
- TOTAL BILIRUBIN [4]: 0.33 mg/dL
- TOTAL PROTEIN [4]: 6.57 G/DL
- BASOPHIL [5]: 1.07%
- EOSINOPHIL [5]: 0.27%
- ERYTHROCYTE COUNT [5]: 5.61 x10E6/uL
- HEMATOCRIT [5]: 34.27%
- HEMOGLOBIN [5]: 10.67 G/DL
- LEUKOCYTE COUNT [5]: 17.3 x10E3/uL
- LYMPHOCYTE [5]: 66.33%
- MEAN CORPUSCULAR HEMOGLOBIN [5]: 19 pg
- MEAN CORPUSCULAR HEMOGLOBIN CONCENTRATION [5]: 31.13 G/DL
- MEAN CORPUSCULAR VOLUME [5]: 61.13 fL
- MONOCYTE [5]: 3.5%
- NEUTROPHIL [5]: 27.87%
- PLATELET COUNT [5]: 1221.33 x10E3/uL
- ALANINE AMINOTRANSFERASE [5]: 31 u/L
- ALBUMIN [5]: 2.83 G/DL
- ALKALINE PHOSPHATASE [5]: 157 u/L
- ASPARTATE AMINOTRANSFERASE [5]: 47.67 u/L
- BLOOD UREA NITROGEN [5]: 12.67 mg/dL
- CHLORIDE [5]: 105 MEQ/L
- CHOLESTEROL [5]: 58.67 mg/dL
- CREATINE PHOSPHOKINASE [5]: 142.33 u/L
- CREATININE [5]: 0.47 mg/dL
- GLUCOSE [5]: 168 mg/dL
- PHOSPHORUS [5]: 11.97 mg/dL
- POTASSIUM [5]: 6.27 MEQ/L
- SODIUM [5]: 148.33 MEQ/L
- TOTAL BILIRUBIN [5]: 0.2 mg/dL
- TOTAL PROTEIN [5]: 5 G/DL
- BASOPHIL [6]: 1.2%
- EOSINOPHIL [6]: 0.25%
- ERYTHROCYTE COUNT [6]: 4.38 x10E6/uL
- HEMATOCRIT [6]: 26.95%
- HEMOGLOBIN [6]: 8.35 G/DL
- LEUKOCYTE COUNT [6]: 3.5 x10E3/uL
- LYMPHOCYTE [6]: 64.7%
- MEAN CORPUSCULAR HEMOGLOBIN [6]: 19.1 pg
- MEAN CORPUSCULAR HEMOGLOBIN CONCENTRATION [6]: 31 G/DL
- MEAN CORPUSCULAR VOLUME [6]: 61.65 fL
- MONOCYTE [6]: 3.45%
- NEUTROPHIL [6]: 24.5%
- PLATELET COUNT [6]: 1541 x10E3/uL
- ALANINE AMINOTRANSFERASE [6]: 27 u/L
- ALBUMIN [6]: 2.6 G/DL
- ALKALINE PHOSPHATASE [6]: 256 u/L
- ASPARTATE AMINOTRANSFERASE [6]: 105 u/L
- BLOOD UREA NITROGEN [6]: 64 mg/dL
- CHLORIDE [6]: 103 MEQ/L
- CHOLESTEROL [6]: 43 mg/dL
- CREATINE PHOSPHOKINASE [6]: 183 u/L
- CREATININE [6]: 0.6 mg/dL
- GLUCOSE [6]: 107 mg/dL
- PHOSPHORUS [6]: 19.1 mg/dL
- POTASSIUM [6]: 9.9 MEQ/L
- SODIUM [6]: 141 MEQ/L
- TOTAL BILIRUBIN [6]: 0.3 mg/dL
- TOTAL PROTEIN [6]: 5.3 G/DL
